Results from a melting point compilation (Tetko et al.).

SMILES | melting point [°C]
CN(C)CCN1C(=O)C=CC1=O | 44 to 46
CN(C)Cc1c(O)ccc2ccccc12 | 73 to 75
CSc1nc2ncnc(Cl)c2s1 | 149 to 151
Cc1cc(C)c2c(N)nsc2n1 | 180 to 182
CC(C)NS(=O)(=O)c1cccc(C(=O)O)c1 | 162 to 164
NS(=O)(=O)CCN1C(=O)c2ccccc2C1=O | 209 to 211
Cc1cccc(-n2nc(-c3ccco3)cc2N)c1 | 82 to 84
COc1cc(OC)cc(N2CCC(Br)C2=O)c1 (stereo unspecified) | 78 to 80
O=C(O)CC(Br)C(=O)c1cccs1 (stereo unspecified) | 125 to 127
Cc1c(C(=O)O)oc2c1ccc1ccccc12 | 206 to 208
Nc1cc(C(F)(F)F)ccc1N1CC(C(F)(F)F)OC1=O (stereo unspecified) | 99 to 101
CN(C)S(=O)(=O)c1ccc(N2CCOCC2)c(C(=O)O)c1 | 218 to 220
NS(=O)(=O)c1cccc(-n2cnnn2)c1 | 181 to 183
O=C1NCNC(=O)N1 | 290 to 292
N#Cc1ccc(CBr)c(F)c1 | 75 to 77
CS(=O)(=O)c1ccsc1C(=O)O | 179 to 181
CC(=O)Nc1ccc(CCN)cc1 | 121 to 123
CCCCNc1c(N)n(Cc2ccccc2)c(=O)[nH]c1=O | 117 to 119
CS(=O)(=O)Nc1ccccc1Br | 79 to 81
Cc1cc(C=O)c(C)n1-c1ccc(F)cc1 | 100 to 102
Cc1cnc(C(=O)O)c(C)c1 | 150 to 152
O=C(O)c1ccc2c(=O)n(-c3ccccc3)c(S)nc2c1 | 368 to 370
Cc1ccc(C(N)=O)c(O)c1 | 181 to 183
O=C1CC(C2CC2)CN1 (stereo unspecified) | 99 to 101

SMILES | melting point [°C]
O=C(Nc1ccccc1)c1ccc(CBr)cc1 | 179 to 181
COc1ccc(S(N)(=O)=O)c(C)c1C | 202 to 204
Brc1ccc(NCc2ccsc2)cc1 | 44 to 46
CNC1CCN(C2CCOCC2)CC1 | 32 to 34
Cc1cc(S(=O)(=O)Nc2sc3c(c2C(N)=O)CCC(C)C3)ccc1Br (stereo unspecified) | 218 to 220
Nc1cc(F)c(I)c(F)c1 | 113 to 115
Nc1cccc(S(=O)(=O)N2CCNC(=O)C2)c1 | 189 to 191
Cc1c(C(=O)O)sc2ncn(C)c(=O)c12 | 215 to 217
COC(=O)c1cc(Br)cc(S(=O)(=O)Cl)c1 | 59 to 61
Clc1ccc(Cc2nn[nH]n2)cc1Cl | 153 to 155
O=C1CN(c2cc(Cl)ccc2Cl)CC(=O)N1 | 139 to 141
COC(C#N)c1ccc([N+](=O)[O-])cc1 (stereo unspecified) | 42 to 44
CCOC(=O)c1ccc2c(c1)nc(S)n2CC | 152 to 154
O=C(O)CSc1nc(-c2ccccc2)no1 | 115 to 117
CCn1nc(C)c(S(=O)(=O)Cl)c1C | 34 to 36
CN1CCC(Nc2cccc3ccccc23)CC1 | 83 to 85
O=C(O)c1cccc(NC(=O)c2ccc3[nH]cnc3c2)c1 | 305 to 307
ClCc1csc(COc2ccccc2)n1 | 49 to 51
CC(C)(C)OC(=O)NCCOc1ccc(N)cc1 | 73 to 75
OC(CNC1CC1)c1ccc(F)cc1 (stereo unspecified) | 84 to 86
O=C(O)c1nnn(-c2cccc(F)c2)c1C1CC1 | 149 to 151
N#CCC(=O)c1ccccc1F | 51 to 53
Cc1ccc(C)c(S(=O)(=O)N2CCNCC2)c1 | 108 to 110
O=C(O)COc1ccc(C(F)(F)F)cc1 | 184 to 186

SMILES | melting point [°C]
CC(C)c1c(C(=O)O)cnn1-c1cccc(Cl)c1 | 161 to 163
CCOc1ncc(C(=O)O)cc1Cl | 214 to 216
O=C(O)c1cn(Cc2ccccn2)nn1 | 179 to 181
Cn1cccc(C(=O)O)c1=O | 185 to 187
COC(=O)c1cccc(Oc2ccnc(Cl)n2)c1 | 117 to 119
Cc1ccc(S(=O)(=O)N2CCCC2)cc1C(=O)O | 178 to 180
Cn1cc(C(=O)O)c(-c2coc3ccccc23)n1 | 277 to 279
CCC(C)n1nc(N)cc1C (stereo unspecified) | 54 to 56
O=C1CCC(O)(c2cccc(Cl)c2)CC1 | 119 to 121
O=C(O)C1CCN(C(=O)c2ccco2)CC1 | 127 to 129
COc1ccc2c(=O)c(-c3ccccc3)c(C)oc2c1 | 136 to 138
Cc1cc(N)c2c(n1)CCCC2 | 121 to 123
O=C(Nc1ccc(Br)cn1)C1CCCNC1 (stereo unspecified) | 169 to 171
COC(=O)CCCOc1ccc(N)c2ccccc12 | 69 to 71
O=C(O)c1cc(Cl)ncc1[N+](=O)[O-] | 178 to 180
CC(C)CS(=O)(=O)CC(=O)O | 46 to 48
O=C(O)c1cn(Cc2ccccc2)nc1-c1ccc(Cl)cc1 | 162 to 165
Cc1ccc(-n2cccc2)c(C(=O)O)c1 | 126 to 128
O=C(NCc1ccc2c(c1)OCO2)n1ccnc1 | 108 to 110
Cc1nc(C)c(C)c(O)n1 | 276 to 278
Cc1cc(C(=O)O)c(C)nn1 | 132 to 134
Cc1noc2nc3c(cc12)CCOC3=O | 224 to 226
O=C(O)c1nn(-c2ccccc2)c2c1CCCCC2 | 171 to 173
